Patent publication US5171838A, “Leu3a binding peptides” (Kureha Kagaku Kogyo Kabushiki Kaisha, priority 1990, dated 1992)
“Also recorded” adds a separate entry of the source. Where a SMILES comes first, the peptide text is derived from it. Where no end group is shown, it is not given here. [ ]: non-standard residue; d: D form.

Target: Leu3a binding to CD4
Experiment: Leu3a competitive immunoassay (inhibition of biotinylated Leu3a binding to immobilized CD4 membrane fraction)
Parameters: species or system human
Conditions: for IC50 μg/well: D-amino acid-substituted CD4 (49-63); for IC50 μg/well / IC50 /µg/well: peptide amount per well inhibiting Leu3a binding by 50%; for inhibition of Leu3a binding to CD4 (in words): CD4 from MOLT4 cells; for IC50 /µg/well: CD4 fragment peptides, membrane fraction of MOLT4 or CCRF-CEM cells as CD4 source, unit of the source corrected
Experimental: Then, aliquots of solutions containing labeled Leu3a and the peptide to be tested are added. […] After a suitable period of incubation, the solid matrix is washed to remove unbound components and the labeled Leu3a bound is quantitated. In general, any of a number of conventionally labeled Leu3a preparations may be used, including radioactively labeled or enzyme-labeled Leu3a. However, a biotinylated Leu3a used in conjunction with an appropriate secondary reagent such as a complex of avidin-biotin-horseradish peroxidase is preferred. This secondary reagent specifically binds to the biotinylated Leu3a. A chromogenic substrate is added to the complex, enabling one to measure the amount of Leu3a bound as a function of absorbance.
Two million cells, suspended in 2 ml of 40 mM HEPES (4-(2-hydroxyethyl)-1-piperazine ethanesulfonic acid) buffer (pH 7.4) containing 1 mM EGTA (ethylene-bis-(oxyethylene-nitrilo)-tetraacetic acid), 1 mM PMSF (phenylmethylsulfonylfluoride), 1,000 KIU/ml aprotinin and 150 mM sodium chloride, were lysed by two (2) successive 15 second cycles of ultrasonication and centrifuged at 100×g for five (5) minutes. The supernatant was collected and centrifuged at 15,000×g for ten minutes. The precipitate was resuspended in 1 ml of 50 mM sodium bicarbonate buffer, ultrasonicated by three (3) successive 15 second cycles, and mixed with 1 ml of 50 mM sodium bicarbonate buffer to obtain the cellular membrane suspension. Then, 50 μl of the membrane suspension was added to each well of a 96 well microtiter plate. After overnight incubation at 4° C., the buffer was removed and the adsorbed membrane fraction was fixed by addition of 50 μl of 10 mM PBS (phosphate buffered saline) containing 0.2% glutaraldehyde. After three (3) minutes at room temperature, the glutaraldehyde buffer was removed and the plates were washed five times with PBS. Then, 350 μl of PBS containing 2% bovine serum albumin (BSA) was added to each well to block subsequently added proteins from binding non-specifically to the plastic. After blocking at room temperature for one (1) hour, the blocking buffer was removed and the plates were washed five times with 0.2% BSA solution in PBS (BPBS).
The following dilutions of each peptide in BPBS--were prepared: 10 μg/ml; 20 μg/ml; 40 μg/ml; 100 μg/ml; 200 μg/ml, 400 μg/ml; 1 mg/ml and 2 mg/ml. A 50 μl aliquot of each dilution of a selected peptide was added to a well of a microtiter plate, together with 25 μl of a solution containing 600 ng/ml biotin-conjugated Leu3a (Becton Dickinson Immunocytometry Systems) in BPBS so that each well contained either 0.5, 1, 2, 5, 10, 20, 50 or 100 μg of peptide in a total volume of 75 μl. After overnight incubation at 4° C., the reaction mixture was removed and the plates were washed eight times with BPBS containing 0.05% Tween 20.
A solution containing a complex of avidin DH (reagent A) and biotinylated horseradish peroxidase H (reagent B) was prepared by adding 90 μl of reagent A and 90 μl of reagent B (ABC Kit:Vector Laboratories, Inc.) to 5 ml of BPBS containing 0.05% Tween 20.
Then, 50 μl of the enzyme complex solution was added to each well, and the plates were incubated at room temperature for four (4) hours. The reaction buffer was removed and the plates were washed eight times with 20 mM imidazole buffered saline containing 0.02% Tween 20. Equal volumes of substrate solution A (ABTS; 2,2'-azino-di[3-ethyl-benzthiazoline sulfonate]) and substrate solution B (hydrogen peroxide) (Hybri-Clonal™ EIA Screening Kit: Kirkegaard & Perry Laboratories, Inc.) were mixed, and 100 μl of the substrate solution mixture was added to each well. After incubation at room temperature for one (1) hour, absorbance at 405 nm was measured by microplate reader model MPR-A4 (Tosoh Co., Ltd.).
Leu3a binding, as measured by absorbance, was calculated and plotted against peptide concentration to obtain a competitive inhibition curve.

Molecule	IC50 μg/well	inhibition of Leu3a binding to CD4 (in words)	IC50 /µg/well
CC(C)C[C@H](NC(=O)[C@H](CO)NC(=O)[C@H](CCCNC(=N)N)NC(=O)[C@@H](CCCNC(=N)N)NC(=O)[C@H](CO)NC(=O)[C@H](CC(=O)O)NC(=O)[C@@H](C)NC(=O)[C@H](CCCNC(=N)N)NC(=O)[C@H](CC(=O)O)NC(=O)[C@H](CC(N)=O)NC(=O)[C@H](CC(C)C)NC(=O)[C@H](CCCCN)NC(=O)[C@@H](N)CO)C(=O)N[C@@H](Cc1c[nH]c2ccccc12)C(=O)N[C@@H](CC(=O)O)C(=O)O [[D-Ala^55,D-Arg^58]-CD4(49-63)] (H-SKLNDR[dA]DS[dR]RSLWD-OH)	36 μg/well	–	–
CC(C)C[C@H](NC(=O)[C@H](CO)NC(=O)[C@H](CCCNC(=N)N)NC(=O)[C@H](CCCNC(=N)N)NC(=O)[C@@H](CO)NC(=O)[C@H](CC(=O)O)NC(=O)[C@@H](C)NC(=O)[C@H](CCCNC(=N)N)NC(=O)[C@H](CC(=O)O)NC(=O)[C@H](CC(N)=O)NC(=O)[C@H](CC(C)C)NC(=O)[C@H](CCCCN)NC(=O)[C@@H](N)CO)C(=O)N[C@@H](Cc1c[nH]c2ccccc12)C(=O)N[C@@H](CC(=O)O)C(=O)O [[D-Ala^55,D-Ser^57]-CD4(49-63)] (H-SKLNDR[dA]D[dS]RRSLWD-OH)	10 μg/well	–	–
CC(C)C[C@H](NC(=O)[C@H](CO)NC(=O)[C@H](CCCNC(=N)N)NC(=O)[C@H](CCCNC(=N)N)NC(=O)[C@H](CO)NC(=O)[C@H](CC(=O)O)NC(=O)[C@@H](C)NC(=O)[C@H](CCCNC(=N)N)NC(=O)[C@H](CC(=O)O)NC(=O)[C@@H](CC(N)=O)NC(=O)[C@H](CC(C)C)NC(=O)[C@H](CCCCN)NC(=O)[C@@H](N)CO)C(=O)N[C@@H](Cc1c[nH]c2ccccc12)C(=O)N[C@@H](CC(=O)O)C(=O)O [[D-Asn^52,D-Ala^55]-CD4(49-63)] (H-SKL[dN]DR[dA]DSRRSLWD-OH)	60 μg/well	–	–
CC(C)C[C@H](NC(=O)[C@H](CO)NC(=O)[C@H](CCCNC(=N)N)NC(=O)[C@H](CCCNC(=N)N)NC(=O)[C@H](CO)NC(=O)[C@@H](CC(=O)O)NC(=O)[C@H](C)NC(=O)[C@H](CCCNC(=N)N)NC(=O)[C@H](CC(=O)O)NC(=O)[C@H](CC(N)=O)NC(=O)[C@H](CC(C)C)NC(=O)[C@H](CCCCN)NC(=O)[C@@H](N)CO)C(=O)N[C@@H](Cc1c[nH]c2ccccc12)C(=O)N[C@@H](CC(=O)O)C(=O)O [[D-Asp^56]-CD4(49-63)] (H-SKLNDRA[dD]SRRSLWD-OH)	56 μg/well	–	–
CC(C)C[C@H](NC(=O)[C@@H](CCCCN)NC(=O)[C@@H](N)CO)C(=O)N[C@@H](CC(N)=O)C(=O)N[C@@H](CC(=O)O)C(=O)N[C@@H](CCCNC(=N)N)C(=O)N[C@H](C)C(=O)N[C@@H](CC(=O)O)C(=O)N[C@@H](CO)C(=O)N[C@@H](CCCNC(=N)N)C(=O)N[C@@H](CCCNC(=N)N)C(=O)N[C@@H](CO)C(=O)N[C@H](CC(C)C)C(=O)N[C@@H](Cc1c[nH]c2ccccc12)C(=O)N[C@@H](CC(=O)O)C(=O)O [[D-Lys^50,D-Ala^55,D-Leu^61]-CD4(49-63)] (H-S[dK]LNDR[dA]DSRRS[dL]WD-OH)	22 μg/well	–	–
CC(C)C[C@H](NC(=O)[C@H](CO)NC(=O)[C@H](CCCNC(=N)N)NC(=O)[C@H](CCCNC(=N)N)NC(=O)[C@H](CO)NC(=O)[C@H](CC(=O)O)NC(=O)[C@@H](C)NC(=O)[C@H](CCCNC(=N)N)NC(=O)[C@H](CC(=O)O)NC(=O)[C@H](CC(N)=O)NC(=O)[C@H](CC(C)C)NC(=O)[C@@H](CCCCN)NC(=O)[C@@H](N)CO)C(=O)N[C@@H](Cc1c[nH]c2ccccc12)C(=O)N[C@@H](CC(=O)O)C(=O)O [[D-Lys^50,D-Ala^55]-CD4(49-63)] (H-S[dK]LNDR[dA]DSRRSLWD-OH)	36 μg/well	–	–
KNSNQIKILGNQGSFLTKG [CD4 (29-47)]	–	–	500 µg/well
SKLNDRADSRRSLW [CD4 (49-62)]	–	very weak inhibiting activity	> 500 µg/well
SKLNDRADSRRSLWD [CD4 (49-63), ser-lys-leu-asn-asp-arg-ala-asp-ser-arg-arg-ser-leu-trp-asp]	–	strongly inhibited; also recorded: exceptionally strong inhibitory activity	10 µg/well

Second part, the molecule after the results:

IC50 μg/well	inhibition of Leu3a binding to CD4 (in words)	IC50 /µg/well	Molecule
23 μg/well	–	–	CC(C)C[C@H](NC(=O)[C@H](CCCCN)NC(=O)[C@@H](N)CO)C(=O)N[C@@H](CC(N)=O)C(=O)N[C@@H](CC(=O)O)C(=O)N[C@@H](CCCNC(=N)N)C(=O)N[C@H](C)C(=O)N[C@@H](CC(=O)O)C(=O)N[C@@H](CO)C(=O)N[C@@H](CCCNC(=N)N)C(=O)N[C@H](CCCNC(=N)N)C(=O)N[C@@H](CO)C(=O)N[C@@H](CC(C)C)C(=O)N[C@@H](Cc1c[nH]c2ccccc12)C(=O)N[C@@H](CC(=O)O)C(=O)O [[D-Ala^55,D-Arg^59]-CD4(49-63)] (H-SKLNDR[dA]DSR[dR]SLWD-OH)
32 μg/well	–	–	CC(C)C[C@H](NC(=O)[C@H](CO)NC(=O)[C@H](CCCNC(=N)N)NC(=O)[C@H](CCCNC(=N)N)NC(=O)[C@H](CO)NC(=O)[C@H](CC(=O)O)NC(=O)[C@@H](C)NC(=O)[C@H](CCCNC(=N)N)NC(=O)[C@H](CC(=O)O)NC(=O)[C@H](CC(N)=O)NC(=O)[C@H](CC(C)C)NC(=O)[C@H](CCCCN)NC(=O)[C@@H](N)CO)C(=O)N[C@@H](Cc1c[nH]c2ccccc12)C(=O)N[C@@H](CC(=O)O)C(=O)O [[D-Ala^55]-CD4(49-63)] (H-SKLNDR[dA]DSRRSLWD-OH)
25 μg/well	exhibited inhibitory activity	–	CC(C)C[C@H](NC(=O)[C@H](CO)NC(=O)[C@@H](CCCNC(=N)N)NC(=O)[C@H](CCCNC(=N)N)NC(=O)[C@H](CO)NC(=O)[C@H](CC(=O)O)NC(=O)[C@@H](C)NC(=O)[C@H](CCCNC(=N)N)NC(=O)[C@H](CC(=O)O)NC(=O)[C@H](CC(N)=O)NC(=O)[C@H](CC(C)C)NC(=O)[C@@H](CCCCN)NC(=O)[C@@H](N)CO)C(=O)N[C@@H](Cc1c[nH]c2ccccc12)C(=O)N[C@@H](CC(=O)O)C(=O)O [[D-Lys^50,D-Ala^55,D-Arg^59]-CD4(49-63)] (H-S[dK]LNDR[dA]DSR[dR]SLWD-OH)
–	very weak inhibiting activity	> 500 µg/well	KLNDRADSRRSLWD [CD4 (50-63)]
